Values of other authors, collected in patent US9045800B2, “Methods and compositions for identifying, classifying and monitoring subject having Bcl-2 family inhibitor-resistant tumors and cancers” (AbbVie Inc., priority 2009, dated 2015).

What was measured:
[1] = tested on: human cancer cell lines (SCLC and lymphoma cell lines)
[2] = tested on: solid tumors; settings: literature statement, no dose or model printed

In the case of `CN(C)CC[C@H](CSc1ccccc1)Nc1ccc(S(=O)(=O)NC(=O)c2ccc(N3CCN(Cc4ccccc4-c4ccc(Cl)cc4)CC3)cc2)cc1[N+](=O)[O-]` [ABT-737, N-(4-(4-((4′-chloro(1,1′-biphenyl)-2-yl)methyl)piperazin-1-yl)benzoyl)-4-(((1R)-3-(dimethylamino)-1-((phenylsulfanyl)methyl)propyl)amino)-3-nitrobenzenesulfonamide], the “potency against a diverse panel of human cancer cell lines” value [1] is given as “selective potency against SCLC and lymphoma cell lines” and the “effect on solid tumors” value [2] is given as “induce regression of solid tumors”.
